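Following 48 hours of exposure in 96-well plates, responses at five concentrations were used to interpolate endpoints linearly. TGI: concentration producing complete growth inhibition.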
What was measured:
Test in all cases: NCI tumour cell line growth inhibition, 48 h
DLD-1 colon = system: DLD-1 colon
DMS 114 small cell lung = system: DMS 114 small cell lung
DMS 273 small cell lung = system: DMS 273 small cell lung
HOP-18 NSCLC = system: HOP-18 NSCLC
KM20L2 colon = system: KM20L2 colon
LXFL 529 NSCLC = system: LXFL 529 NSCLC
SNB-78 CNS = system: SNB-78 CNS

Measured: TGI

CN1C(=O)CSC1=S
> 100 µM: all assays above
